Test results published in paper PMC8703884, “Synthesis and Biological Evaluation of S-, O- and Se-Containing Dispirooxindoles” (Molecules, 2021).

Experiments:
[1] = tested on: HCT116^−/− human colon cancer cells (p53 negative); assay: MTT cytotoxicity test, HCT116 p53-/-; settings: HCT-116, read-out: CC50, HCT^−/−
From the text: (§1) The used models included human prostate cancer cell lines LNCaP and PC3, breast cancer cell line (MCF-7), human colon cancer cells (HCT116^+/+, p53 positive, p53^+/+ and HCT116^−/−, p53 negative, p53^−/−), human lung adenocarcinoma epithelial cell line (A549), SV40-transformed normal human lung fibroblast cells (VA13), as well as human embryonic kidney 293 cells (Hek293) stably expressing SV40 large T antigen (Hek293T). The cytotoxicity of the evaluated molecules was properly assessed using a MTT assay based on the modified approach reported by Ferrari and colleagues.
(§2) To further elucidate the dominant mode of action, we used HCT116^+/+ and HCT116^−/− cells by analogy with the paper published by Shangary and colleagues. This isogenic cell line is commonly applied to investigate the p53/MDM2-dependent mode of action.
(§3) MTT test. The MTT assay was carried out according to [35] with few modifications; 3000 Cells (for HEK293T, A549 and MCF7cell lines) or 4000 cells (for VA13 cell line) were seeded in each well of a 96-well plate. […] Assays were performed in triplicates. […] The MTT solution was then discarded and 140 µL of DMSO was added. The plates were swayed on a shaker (60 rpm) to solubilize the formazan. […] The analysis of cytotoxicity and the estimation of IC50 values were carried out with the built-in functions in the GraphPad Prism program (GraphPad Software, Inc., San Diego, CA) P53 activation.

[2] = tested on: A549 human lung adenocarcinoma epithelial cell line; assay: MTT cytotoxicity test, A549; assay type: cell-based; settings: 72 h incubation
[3] = tested on: MCF7 breast cancer cell line; assay: MTT cytotoxicity test, MCF7; assay type: cell-based; settings: Homo sapiens, 72 h incubation
Description: (§4) MTT test. […] Assays were performed in triplicates.

[4] = tested on: LNCaP human prostate cancer cell line; assay: MTT cytotoxicity test, LNCaP; assay type: cell-based; settings: for CC50: Homo sapiens, LNCaP, read-out: CC50, LNCaP; for CC50 / CC50, LNCaP / selectivity on LNCaP cells over PC3 cells: MTT test; for selectivity index S for LNCaP/PC3 cells: ratio of CC50 values of the cell line pair
[5] = tested on: PC3 human prostate cancer cell line; assay: MTT cytotoxicity test, PC3; assay type: cell-based; settings: for CC50: Homo sapiens
[6] = MTT cytotoxicity test, Hek293T; assay type: cell-based; settings: human, 72 h incubation
[7] = tested on: HCT116^+/+ human colon cancer cells (p53 positive); assay: MTT cytotoxicity test, HCT116 p53+/+; settings: for CC50: Homo sapiens, HCT-116, read-out: CC50, HCT^+/+
From the text: as §1, §2, §3

[8] = MTT cytotoxicity test, VA13; assay type: cell-based; settings: human, VA13 SV40-transformed normal lung fibroblast cells, 72 h incubation
Description: as §4

Row | SMILES | CC50 [1] [µM] | CC50 [2] [µM] | CC50 [3] [µM] | CC50 [4] [µM] | CC50 [5] [µM] | CC50 at 72 h [6] [µM] | melting point | CC50 [7] [µM] | CC50 at 72 h [8] [µM] | CC50, LNCaP [4] | CC50, PC3 [5] | selectivity on LNCaP cells over PC3 cells [4] | selectivity index S for LNCaP/PC3 cells [4] | selectivity S against HCT116^+/+ over HCT116^−/− ([7]; ratio of CC50 values of the cell line pair)
1 | CN1CC2(NC(=S)N(Cc3cccc(Cl)c3)C2=O)C2(C1)C(=O)Nc1ccccc12 (stereo not drawn) [Compound 4o, 1′-Methyl-1-(3-chlorobenzyl)-2-thioxodispiro[imidazolidine-4,3′-pyrrolidine-4′,3″-indoline]-2″,5-dione] | > 100 | 53.4 ± 11.2 | 23.2 ± 3.6 | > 100 | > 100 | 48 ± 5.3 | 273 to 274 °C | > 100 | 36.3 ± 3.2 | – | – | – | – | –
2 | CN1CC2(NC(=S)N(c3ccc(Cl)cc3)C2=O)C2(C1)C(=O)Nc1ccc(Cl)cc12 (stereo not drawn) [Compound 4l, 5″-Chloro-1′-methyl-1-(4-chlorophenyl)-2-thioxodispiro[imidazolidine-4,3′-pyrrolidine-4′,3″-indoline]-2″,5-dione] | 57.1 ± 5.76 | 37 ± 6.5 | 19.1 ± 4.1 | 4.4 ± 0.67 | 2.2 ± 0.7 | 34 ± 3.4 | 239 to 240 °C | 42.5 ± 9.1 | 30.4 ± 3 | – | – | – | – | –
3 | CCOc1ccc(N2C(=O)C3(CN(C)CC34C(=O)Nc3ccc(Cl)cc34)NC2=S)cc1 (stereo not drawn) [Compound 4h, 5″-Chloro-1′-methyl-1-(4-ethoxyphenyl)-2-thioxodispiro[imidazolidine-4,3′-pyrrolidine-4′,3″-indoline]-2″,5-dione] | > 100 | 6.2 ± 2.1 | 8.5 ± 1.2 | > 100 | > 100 | 6.7 ± 0.9 | 268 to 271 °C | > 100 | 6.3 ± 1.1 | no activity at all | no activity at all | – | – | –
4 | CN1CC2(NC(=S)N(c3ccc(F)cc3)C2=O)C2(C1)C(=O)Nc1ccccc12 (stereo not drawn) [Compound 4m, 1′-Methyl-1-(4-fluorophenyl)-2-thioxodispiro[imidazolidine-4,3′-pyrrolidine-4′,3″-indoline]-2″,5-dione] | 42.4 ± 4.7 | > 100 | 106 ± 43.1 | 3.4 ± 0.7 | 1.93 ± 0.91 | > 100 | 273 to 274 °C | 23.3 ± 3.3 | 171 ± 15.8 | – | – | – | – | –
5 | CN1CC2(NC(=S)N(c3ccc(F)c(Cl)c3)C2=O)C2(C1)C(=O)Nc1ccc(Cl)cc12 (stereo not drawn) [Compound 4r, 5″-Chloro-1′-methyl-1-(3-chloro-4-fluorophenyl)-2-thioxodispiro[imidazolidine-4,3′-pyrrolidine-4′,3″-indoline]-2″,5-dione] | > 100 | 14.1 ± 1.8 | 14.1 ± 1.2 | > 100 | > 100 | 11.1 ± 1.3 | 177 to 180 °C | > 100 | 13.9 ± 1.5 | absolutely inactive | absolutely inactive | – | – | –
6 | C=CCN1C(=O)C2(CN(C)CC23C(=O)Nc2ccc(Cl)cc23)NC1=S (stereo not drawn) [Compound 4d, 5″-Chloro-1′-methyl-1-allyl-2-thioxodispiro[imidazolidine-4,3′-pyrrolidine-4′,3″-indoline]-2″,5-dione] | 40.1 ± 5.23 | 32.1 ± 6.7 | 68.4 ± 8.8 | 20 ± 3.6 | 50 ± 9.1 | 11.5 ± 3 | 141 to 142 °C | 57.7 ± 18.4 | 30.8 ± 4.5 | – | – | moderate selectivity | – | –
7 | CN1CC2(NC(=S)N(C3CC3)C2=O)C2(C1)C(=O)Nc1ccc(Cl)cc12 (stereo not drawn) [Compound 4t, 5″-Chloro-1′-methyl-1-cyclopropyl-2-thioxodispiro[imidazolidine-4,3′-pyrrolidine-4′,3″-indoline]-2″,5-dione] | > 100 | > 100 | > 100 | > 100 | > 100 | > 100 | 275 to 276 °C | > 100 | > 100 | – | – | – | – | –
8 | CN1CC2(NC(=S)N(c3ccc(F)c(Cl)c3)C2=O)C2(C1)C(=O)Nc1ccccc12 (stereo not drawn) [Compound 4q, 1′-Methyl-1-(3-chloro-4-fluorophenyl)-2-thioxodispiro[imidazolidine-4,3′-pyrrolidine-4′,3″-indoline]-2″,5-dione] | > 100 | > 100 | 62.2 ± 27.7 | > 100 | > 100 | 69.1 ± 21 | 252 to 254 °C | > 100 | 57.9 ± 18.3 | – | – | – | – | –
9 | CN1CC2(NC(=S)N(C3CC3)C2=O)C2(C1)C(=O)Nc1ccccc12 (stereo not drawn) [Compound 4s, 1′-Methyl-1-cyclopropyl-2-thioxodispiro[imidazolidine-4,3′-pyrrolidine-4′,3″-indoline]-2″,5-dione] | > 100 | > 100 | > 100 | > 100 | > 100 | > 100 | 272 to 273 °C (dec.) | > 100 | > 100 | – | – | – | – | –
10 | CN1CC2(NC(=S)N(c3ccccc3)C2=O)C2(C1)C(=O)Nc1ccccc12 (stereo not drawn) [Compound 4w, 1′-Methyl-1-phenyl-2-thioxodispiro[imidazolidine-4,3′-pyrrolidine-4′,3″-indoline]-2″,5-dione] | > 100 | > 100 | 57.9 ± 17.1 | 9.8 ± 1.8 | 52.2 ± 11.6 | 75.1 ± 8.6 | 273 to 274 °C | 54.7 ± 9.5 | 94.1 ± 19.7 | – | – | – | 5.3 | > 4.8
11 | CN1CC2(NC(=S)N(Cc3ccccc3)C2=O)C2(C1)C(=O)Nc1ccc(Cl)cc12 (stereo not drawn) [Compound 4b, 5″-Chloro-1′-methyl-1-benzyl-2-thioxodispiro[imidazolidine-4,3′-pyrrolidine-4′,3″-indoline]-2″,5-dione] | 30 ± 15.2 | 9.1 ± 2.2 | 24.3 ± 2.3 | 10.3 ± 1.1 | 49 ± 12.7 | 9.5 ± 1.7 | 152 to 153 °C | 60.7 ± 13.8 | 21.4 ± 1.9 | – | – | moderate selectivity | – | –
12 | Cc1ccc(N2C(=O)C3(CN(C)CC34C(=O)Nc3ccc(Cl)cc34)NC2=S)cc1 (stereo not drawn) [Compound 4j, 5″-Chloro-1′-methyl-1-(p-tolyl)-2-thioxodispiro[imidazolidine-4,3′-pyrrolidine-4′,3″-indoline]-2″,5-dione] | > 100 | 62 ± 8.3 | 13.7 ± 2.1 | > 100 | > 100 | 17.4 ± 2 | 159 to 160 °C | > 100 | 27.2 ± 5.3 | – | – | – | – | –
13 | CCOc1ccc(N2C(=O)C3(CN(C)CC34C(=O)Nc3ccccc34)NC2=S)cc1 (stereo not drawn) [Compound 4g, 1′-Methyl-1-(4-ethoxyphenyl)-2-thioxodispiro[imidazolidine-4,3′-pyrrolidine-4′,3″-indoline]-2″,5-dione] | > 100 | 38.2 ± 11.5 | 75.2 ± 29.3 | > 100 | > 100 | 30.2 ± 8.2 | 240 to 241 °C | > 100 | 73.6 ± 23.4 | – | – | – | – | –
14 | C=CCN1C(=O)C2(CN(C)CC23C(=O)Nc2ccccc23)NC1=S (stereo not drawn) [Compound 4c, 1′-Methyl-1-allyl-2-thioxodispiro[imidazolidine-4,3′-pyrrolidine-4′,3″-indoline]-2″,5-dione] | 14.3 ± 6.65 | 45.9 ± 13.4 | > 100 | 9.8 ± 3.3 | 53.1 ± 15.8 | 41.8 ± 12.4 | 281 to 283 °C (dec.) | > 100 | > 100 | – | – | – | – | –
15 | COc1ccc(N2C(=O)C3(CN(C)CC34C(=O)Nc3ccccc34)NC2=S)cc1 (stereo not drawn) [Compound 4e, 1′-Methyl-1-(4-methoxyphenyl)-2-thioxodispiro[imidazolidine-4,3′-pyrrolidine-4′,3″-indoline]-2″,5-dione] | 36 ± 12.6 | 18.9 ± 3.1 | 22.8 ± 5.6 | 3.45 ± 0.45 | > 100 | 6.5 ± 0.9 | 155 to 156 °C | 27.9 ± 6.94 | 13.2 ± 2.3 | – | – | – | > 30 | –
